Measurements: patent publication US6844355B2 (Academic Pharmaceuticals, Inc., priority 1999, dated 2005)
Entries after “also recorded” stand apart in the source; their conditions may differ.

Legend:
[1] = biological target: T1, KVLQT1+KCNE1 (IKs) (Homo sapiens, UniProt P51787); assay: KVLQT1+KCNE1 (IKs) currents in Xenopus oocytes; type: cell-based
T1 construct: expressed in transfected cells; host or cells: Xenopus laevis oocytes (co-injection of hminK and KVLQT1 cRNA)
Procedure: Wild type human minK (KCNE1) and KVLQT1 cDNA are isolated from human cardiac and pancreas cDNA libraries and cloned into the pSP64 poly (A) vector (Promega). For transcription in oocytes, the minK is subcloned from genomic DNA using the MKEL and MKER primers. The final minK expression construct contains cDNA inserted in the plasmid vector (PROMEGA). For the injection into Xenopus oocytes, cRNA is prepared using the mCAP RNA capping kit (Stratagene) following linearization of the expression construct by restriction digestion with EcoRI for run-off transcription.
In-vitro transcription is performed with SP6 RNA polymerize using the mMessage Machine kit (Ambion). The final capped-cRNA product is resuspended in 0.1 mM KCL and stored at −80° C. The concentration of synthesized RNA is estimated by separating the denatured cRNA on a 1.5% agarose gel together with the 0.24-9.5 kb RNA ladder (Gibco-BRL).
KVLQT1+KCNE1 currents are recorded with a solution containing in mmol-L: NaCl-96; KCl-2 CaCl2-1.8; MgCl2-1.0; and HEPES 5, pH 7.4. The following testing protocols are used: a) I-V plot, oocytes are held at −80 mV, then step pulses from −60 mV to +40 mV in 20 mV increments of 18 seconds are applied returning to −40 mV; b) Single pulses, the same protocol is applied for control current and after drug perfusion for current measurement. From a holding potential of −80 mV to a test potential of +40 mV during 18 seconds a pulse is applied. […] The cell is either left at a resting potential of −80 mV or stimulated from a holding potential of −80 mV to a test potential of +40 mV during 1000 ms in a frequency range of 0.3 Hz.
Isolation of oocytes and cRNA injection. Xenopus laevis frogs are anesthetized by immersion in 0.2% Trocaine for 15-30 min. A small incision is made in the lateral ventral quadrant of the abdomen and a small piece of ovarian tissue is removed. The incision is then sutured at both the muscle and the cutaneous layers with fine silk thread and the animal is allowed to recover. The ovarian lobe is digested with 10 mg/ml type 1A collagenase (Sigma) in calcium-free solution for 30-60 min to remove the follicle layer. Stage V and VI oocytes are injected with 40 nl of a solution containing 10 to 50 ng/μl cRNA of either SCN5A, HERG, or hminK and KVLQT1, and then incubated at 19° C. in a modified bath solution for 2-8 days.

[2] = test system: ileum; assay: Ileum strip contractility, isometric muscle contractions; design: species or system Guinea pig; details: for Bursts / Slow waves / Spikes: mean ± standard deviation; for effect on ileum strip contractility, in words: Table 2 / FIG. 9
Procedure: Rat Ileum Studies and Characterization of Chiral Separation Products. Guinea pig ileum is harvested and placed in warm (37° C.) Krebs […] buffer and oxygenated (95% O2 and 5% CO2). Segments approximately 4.5 cm long are placed on a transducer (Gilson Instruments) and a preload of 1 gm is placed on the tissue. The tissue is then placed in a chamber and bathed in Tyrode's solution (37.5° C.) and oxygenated (95% O2 and 5% CO2). Muscle contractions are measured isometrically. After stable contractions are obtained, a study compound is added to the tissue bath and recordings are made until a new steady state of contraction is obtained. Following a washout period, a new steady state of contraction is recorded and then the procedure repeated with a second dose of the drug being evaluated. Changes in contraction magnitude are recorded as the percentage change from baseline. This procedure is a modification of the technique described by Van Neuten and associates (Van Neuten et al., Life Sci. 1978 28:453-458). […] The preparation permits the identification of slow waves of contraction, bursts of contraction of the smooth muscle and spikes of marked cross-sectional contraction. Each of the measures can be used as a measurement of contractile effect of an agent.

T1 sequence (P51787 whole entry): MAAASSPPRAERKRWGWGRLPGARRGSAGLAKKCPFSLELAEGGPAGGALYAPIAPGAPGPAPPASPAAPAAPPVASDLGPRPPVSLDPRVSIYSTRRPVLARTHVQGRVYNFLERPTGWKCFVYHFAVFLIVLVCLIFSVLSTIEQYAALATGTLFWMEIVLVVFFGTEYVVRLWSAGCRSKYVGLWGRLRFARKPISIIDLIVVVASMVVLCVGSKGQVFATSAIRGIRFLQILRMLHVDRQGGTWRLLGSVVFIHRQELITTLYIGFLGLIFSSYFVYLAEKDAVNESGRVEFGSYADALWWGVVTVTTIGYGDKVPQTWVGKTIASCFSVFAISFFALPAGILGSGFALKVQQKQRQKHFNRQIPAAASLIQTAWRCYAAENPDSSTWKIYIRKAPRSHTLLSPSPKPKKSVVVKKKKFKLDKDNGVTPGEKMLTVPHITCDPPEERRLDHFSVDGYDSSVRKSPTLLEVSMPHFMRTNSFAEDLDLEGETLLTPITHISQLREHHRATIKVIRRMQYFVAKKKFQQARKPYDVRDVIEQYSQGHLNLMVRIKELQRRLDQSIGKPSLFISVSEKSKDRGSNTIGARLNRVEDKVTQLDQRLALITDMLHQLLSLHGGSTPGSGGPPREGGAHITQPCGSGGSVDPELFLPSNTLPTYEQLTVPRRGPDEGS

Compound	effect on IKs current, in words ([1]; 100 μM)	% of block of IKs ([1]; 10^−4 Molar)	% of block of IKs ([1]; 10^−5 Molar)	% of block of IKs ([1]; 10^−6 Molar)	reduction of IKs currents ([1]; concentrations from 10^−6 to 10^−4, respectively)	Bursts ([2]; 10^−5 M)	Slow waves ([2]; 10^−5 M)	Spikes ([2]; 10^−5 M)	Bursts ([2]; 10^−6 M)	Slow waves ([2]; 10^−6 M)	Spikes ([2]; 10^−6 M)	Bursts ([2]; 10^−7 M)	Slow waves ([2]; 10^−7 M)	Spikes ([2]; 10^−7 M)	effect on rat illeal strip tracings, in words ([2]; 10^−7 and 10^−6 M, FIG. 9 legend)	effect on ileum strip contractility, in words [2]
CCCCc1oc2ccccc2c1C(=O)c1cc(I)c(OCCN(CC)CC)c(I)c1 [AMIODARONE, amiodarone]	inhibits the current flow across the IKs channel	47 ± 1%	30 ± 3%	15 ± 1%												
C=C[C@H]1C[N@@]2CC[C@H]1C[C@@H]2[C@@H](O)c1ccnc2ccc(OC)cc12 [Quinidine, quinidine]		52 ± 5%	21 ± 7%	14 ± 5%	14 to 52%	14 ± 4	6 ± 1	15 ± 1	7.7 ± 1.2	3.0 ± 0.5	13 ± 2	8 ± 2	3.3 ± 0.6	11 ± 1	reduces the magnitude of contraction	augmentation of slow wave contractility, burst contractility and spike contractility; also recorded: increases slow waves
C=C[C@H]1C[N@@]2CC[C@H]1C[C@H]2[C@H](O)c1ccnc2ccc(OC)cc12 [quinine]																no effect
